Test results: patent US9801850B2, “Antibacterial agent” (OSAKA UNIVERSITY, priority 2009, dated 2017)
Converted amounts (≈) assume the structure as drawn.

Assays:
MSSA ATCC29213 = assay: MIC, broth microdilution (Example 2, Table 6); assay type: cell-based, Staphylococcus aureus
[1] = tested on: MSSA clinical isolate No. 1; assay: MIC, broth microdilution (Example 2, Table 6); assay type: cell-based, Staphylococcus aureus
[2] = tested on: MSSA clinical isolate No. 2; assay: MIC, broth microdilution (Example 2, Table 6); assay type: cell-based, Staphylococcus aureus
[3] = tested on: MSSA clinical isolate No. 4; assay: MIC, broth microdilution (Example 2, Table 6); assay type: cell-based, Staphylococcus aureus
[4] = tested on: MRSA clinical isolate No. 7; assay: MIC, broth microdilution (Example 2, Table 6); assay type: cell-based, Staphylococcus aureus
[5] = tested on: MRSA clinical isolate No. 10; assay: MIC, broth microdilution (Example 2, Table 6); assay type: cell-based, Staphylococcus aureus
[6] = tested on: Bacillus cereus ATCC14579; assay: Antibacterial spectrum MIC (Table 7); assay type: cell-based
Method: (§1) Methicillin-susceptible Staphylococcus aureus (MSSA) NCTC8325 and methicillin-resistant Staphylococcus aureus (MRSA) ATCC43300 were used as bacteria. The bacteria of each type were cultured using Mueller-Hinton Broth (MH-broth, Difco) as a medium. Then, the minimum inhibitory concentration (MIC) of each of the EGCG derivatives was measured by a broth microdilution method in accordance with the Clinical and Laboratory Standards Institute (CLSI) guidelines (hereinafter the same).
(§2) First, each of the EGCG derivatives was dissolved in 100% dimethyl sulfoxide (DMSO, Wako Pure Chemical Industries, Ltd.) so that the concentration thereof became 5120 μg/ml. The resultant solution was diluted with DMSO or sterile distilled water so as to prepare two-fold dilution series of antibacterial agent solutions. […] Each of these antibacterial agent solutions was dispensed to wells of a 96-well plate. The concentration of the EGCG derivative in the antibacterial agent solution dispensed to the wells was set to be 10 times as high as the final concentration. On the other hand, the bacteria were cultured in the MH-broth at 37° C. overnight, and the thus-obtained pre-culture solution was diluted with a new MH-broth so that the concentration thereof in the MH-broth became 10^−4 (10^4-fold dilution), thus preparing a bacterial culture solution of about 1×10^5 CFU/ml (CFU: Colony Forming Unit, the number of viable cells). The bacterial culture solution was further added to each well, and the mixture was cultured at 37° C. for 18 hours. The ratio (volume ratio) between the antibacterial agent solution and the bacterial culture solution added to each well was set to 1:9 (the antibacterial agent solution:the bacterial culture solution), and the volume of the mixture of them per well was set to 100 μl in total. The final concentration of the EGCG derivative in the mixture was set to 8 μg/ml to 512 μg/ml, and the number of viable cells in the mixture was set to about 1×10^5 CFU/ml. Then, after the completion of the culture, the MIC was determined. Also, the turbidity (OD600 nm) was measured using a plate reader so as to identify minor differences.
(§3) Regarding the respective type strains shown in Tables 7 and 8 below, the MIC measurement was performed using the antibacterial agent solutions of Example 2 in the same manner as described in Section (2) of Example 1, except for the following. The antibacterial agent solutions were prepared by dissolving the EGCG derivatives of Example 2 in 100% DMSO and then diluting the resultant mixtures with sterile distilled water. The respective strains were derived from ATCC or NCTC. As Moraxella catarrhalis and Aspergillus fumigatus, clinical isolates thereof without an acquired resistance mechanism were used. For nutrient-rich bacteria, namely, Streptococcus pneumoniae ATCC49619, Streptococcus pyogenes ATCC19615, Streptococcus agalactiae ATCC13813, Moraxella catarrhalis, and Haemophilis influenzae ATCC49766, Strepto Haemo supplement (Eiken Chemical Co., Ltd.) was added to media for culturing them. The MIC measurement with respect to fungi was carried out by a broth microdilution method using a RPMI1640/MOPS (pH 7.0) medium in accordance with CLSI guidelines. About 2×10^3 cells/ml of fungi were inoculated to the medium. After the culture at 35° C. for 24 to 48 hours, the MIC was determined. Also, regarding the antibacterial agent solution of Comparative Example 2, the MIC was measured in the same manner.

[7] = tested on: Bacillus subtilus ATCC6051; assay: Antibacterial spectrum MIC (Table 7); assay type: cell-based
Method: as §1, §2, §3

[8] = tested on: Enterobacter aerogenes ATCC13048; assay: Antibacterial spectrum MIC (Table 7); assay type: cell-based
Method: as §1, §2, §3

[9] = tested on: Enterobacter cloacae ATCC13047; assay: Antibacterial spectrum MIC (Table 7); assay type: cell-based
Method: as §1, §2, §3

[10] = tested on: Enterococcus faecalis ATCC29212; assay: Antibacterial spectrum MIC (Table 7); assay type: cell-based
Method: as §1, §2, §3

[11] = tested on: Escherichia coli ATCC25922; assay: Antibacterial spectrum MIC (Table 7); assay type: cell-based
Method: as §1, §2, §3

[12] = tested on: Haemophilis influenzae ATCC49766; assay: Antibacterial spectrum MIC (Table 7); assay type: cell-based; details: Strepto Haemo supplement
Method: as §1, §2, §3

[13] = tested on: Klebsiella oxytoca ATCC8724; assay: Antibacterial spectrum MIC (Table 7); assay type: cell-based
Method: as §1, §2, §3

[14] = tested on: Micrococcus lutus ATCC9341; assay: Antibacterial spectrum MIC (Table 7); assay type: cell-based
Method: as §1, §2, §3

Moraxella catarrhalis = assay: Antibacterial spectrum MIC (Table 7); assay type: cell-based; details: Moraxella catarrhalis clinical isolate, Strepto Haemo supplement
Method: as §1, §2, §3

[15] = tested on: Neisseria gonorrhoeae ATCC49226; assay: Antibacterial spectrum MIC (Table 7); assay type: cell-based
Method: as §1, §2, §3

Neisseria meningitidis = assay: Antibacterial spectrum MIC (Table 7); assay type: cell-based
Method: as §1, §2, §3

[16] = tested on: Serratia marcescens ATCC13880; assay: Antibacterial spectrum MIC (Table 7); assay type: cell-based
Method: as §1, §2, §3

[17] = tested on: Staphylococcus aureus ATCC43300 (MRSA); assay: Antibacterial spectrum MIC (Table 7); assay type: cell-based
Method: as §1, §2, §3

[18] = tested on: Staphylococcus aureus NCTC8325; assay: Antibacterial spectrum MIC (Table 7); assay type: cell-based
Method: as §1, §2, §3

[19] = tested on: Staphylococcus epidermis ATCC14990; assay: Antibacterial spectrum MIC (Table 7); assay type: cell-based; details: Staphylococcus epidermis ATCC14990
Method: as §1, §2, §3

[20] = tested on: Stenotrophomonas maltophilia ATCC13637; assay: Antibacterial spectrum MIC (Table 7); assay type: cell-based
Method: as §1, §2, §3

[21] = tested on: Streptococcus agalactiae ATCC13813; assay: Antibacterial spectrum MIC (Table 7); assay type: cell-based; details: Strepto Haemo supplement
Method: as §1, §2, §3

[22] = tested on: Streptococcus pneumoniae ATCC49619; assay: Antibacterial spectrum MIC (Table 7); assay type: cell-based; details: Strepto Haemo supplement
Method: as §1, §2, §3

[23] = tested on: Streptococcus pyogenes ATCC19615; assay: Antibacterial spectrum MIC (Table 7); assay type: cell-based; details: Strepto Haemo supplement
Method: as §1, §2, §3

[24] = tested on: Yersinia enterocolitica ATCC9610; assay: Antibacterial spectrum MIC (Table 7); assay type: cell-based
Method: as §1, §2, §3

| Compound | MIC (MSSA ATCC29213) [µg/mL] | MIC [1] [µg/mL] | MIC [2] [µg/mL] | MIC [3] [µg/mL] | MIC [4] [µg/mL] | MIC [5] [µg/mL] | MIC [6] [µg/mL] | MIC [7] [µg/mL] | MIC [8] [µg/mL] | MIC [9] [µg/mL] | MIC [10] [µg/mL] | MIC [11] [µg/mL] | MIC [12] [µg/mL] | MIC [13] [µg/mL] | MIC [14] [µg/mL] | MIC (Moraxella catarrhalis) [µg/mL] | MIC [15] [µg/mL] | MIC (Neisseria meningitidis) [µg/mL] | MIC [16] [µg/mL] | MIC [17] [µg/mL] | further results |
| --- | --- | --- | --- | --- | --- | --- | --- | --- | --- | --- | --- | --- | --- | --- | --- | --- | --- | --- | --- | --- | --- |
| EGCG-dioctanoate [EGCG-C8×2] | 16 | 16 | 16 | 16 | 16 | 16 | 16 | 32 | 16 | 64 | 64 | 64 | 16 | 64 | 64 | 32 | 16 | 16 | 64 | 64 | MIC [18]: 16 µg/mL; MIC [19]: 64 µg/mL; MIC [20]: 32 µg/mL; MIC [21]: 64 µg/mL; MIC [22]: 16 µg/mL; MIC [23]: 32 µg/mL; MIC [24]: 32 µg/mL |
| O=C(O[C@@H]1Cc2c(O)cc(O)cc2O[C@@H]1c1cc(O)c(O)c(O)c1)c1cc(O)c(O)c(O)c1 [EGCG, Epigallocatechin gallate, reference compound] | >128 | >128 | >128 | >128 | >128 | >128 | 64 (≈ 140 µM) | 64 (≈ 140 µM) | 64 (≈ 140 µM) | 128 (≈ 279 µM) | 256 (≈ 558 µM) | 128 (≈ 279 µM) | 32 (≈ 69.8 µM) | 128 (≈ 279 µM) | 128 (≈ 279 µM) | 128 (≈ 279 µM) | 32 (≈ 69.8 µM) | 32 (≈ 69.8 µM) | 128 (≈ 279 µM) | 128 (≈ 279 µM) | MIC [18]: 128 µg/mL (≈ 279 µM); MIC [19]: 128 µg/mL (≈ 279 µM); MIC [20]: 64 µg/mL (≈ 140 µM); MIC [21]: 256 µg/mL (≈ 558 µM); MIC [22]: 32 µg/mL (≈ 69.8 µM); MIC [23]: 128 µg/mL (≈ 279 µM); MIC [24]: 64 µg/mL (≈ 140 µM) |
